Residues, ends and D or L forms follow the SMILES beside them.
Tested on: brain / BBB
Assay: In vivo brain uptake, fluorescence microscopy of rat brain
Design: species or system male Wistar rats
Details: i.v., lower doses injected
Protocol: In vivo studies were performed in male Wistar rats housed under a 12 hours light-dark cycle with free access to food and water. The animals were allocated in five groups, each consisting of three rats. Three animal groups received a single i.v. administration of NBD-gH625 at a concentration of 10 µg, 20 µg, and 40 µg/100 g bw, respectively. Control group received vehicle while another group received gH-625 (40 µg/100 g bw). Both NBD-gH625 and gH625 were dissolved in phosphate-buffered saline. After 3.5 hours from the i.v. administration, the animals were anesthetized with Zoletil® (40 mg/100 g) and euthanized by decapitation. This study was carried out in strict accordance with recommendations in the European Guide for the Care and Use of Laboratory Animals. Every effort was made to minimize animal pain and suffering. All animal protocols were approved by the Committee on the Ethics of Animal Experiments of the University of Napoli Federico II (Italy) and the Italian Minister of Health. (Protocol number 2012/000180).
The ex-vivo fluorescence microscopy analysis was performed to evaluate the distribution of NBD-gH625 on both sides of the BBB. In order to evaluate if there is a linear relationship between slides fluorescence integrated density and the amount of the peptide, a calibration curve was obtained. In particular, increasing amounts of NBD-gH625 (0–30 µM) were spotted on microscope slides and images at 515 nm were acquired (See the Results section) and analysed as described below. Brains were removed from animals, sectioned sagittally in thick slices, washed in PBS, mounted on coverslips, stained with DAPI (4′–6 Diamidino-2-Phenylindole, Dilactate) (Invitrogen, Carlsbad, CA, USA) and analysed under Axioskop fluorescence microscope (Zeiss). Images, at least 10 field of view (800 × 700 μm each) for each experimental class, were acquired using an AxioCam MRc5 (Zeiss) with DAPI filter (λex 350 nm; λem 461 nm) and a fluorescein isothiocyanate filter (λex 488 nm; λem 515 nm).
To evaluate the distribution of NBD-gH625 on both sides of the BBB, we estimated the fluorescence inside the blood vessels (without discriminating between the amount present in the blood and that present in the endothelial cells) and outside the blood vessels in 10 images for each experimental class. In detail, to assess the NBD-gH625 that reached without crossing the BBB, we selected blood vessels as the region of interest (ROI) (inbound) and evaluated the fluorescence intensity; then, on the non-zero thresholded images, an inversion of selected ROI was carried out to obtain the complementary ROI to calculate the amounts of NBD-gH625 which crossed the BBB (outbound).
The morphology of blood vessels was easily identified and outlined; the images were calibrated by ImageJ Rodbard function; integrated density values were calculated within the outlines exclusively, to be considered as inside fluorescence. Then, the thresholded and outlined images, to exclude both blood vessels and background values, were used to calculate the integrated density as outside fluorescence.
To evaluate the effect of concentration on the systemic delivery of NBD-gH625, a fluorescence microscopy analysis was performed as previously reported.
Briefly, livers and brains were isolated and fixed for 24 hours in Bouin’s fixative (71% picric acid, 5% acetic acid, 24% formaldehyde) and embedded in paraffin wax (Carlo Erba, Milan, Italy). Tissue sections (10 μm of thickness) were incubated in 0.1% Sudan Black B dissolved in 70% ethanol for 20 minutes to reduce the tissues autofluorescence. The excess of Sudan Black B was removed by washing with Tris-buffered saline containing 0.02% Tween 20[30],[31]. Sections were stained with DAPI to counterstain nuclei, then mounted with a coverslip in glycerol/phosphate-buffered saline (1:1) and acquired using an AxioCam MRc5 with DAPI filter (λex 350 nm; λem 461 nm) and a fluorescein isothiocyanate filter (λex 488 nm; λem 515 nm). […]

CC[C@H](C)[C@H](NC(=O)[C@H](CC(C)C)NC(=O)[C@H](C)NC(=O)[C@H](CC(N)=O)NC(=O)[C@H](Cc1ccc(O)cc1)NC(=O)[C@H](Cc1c[nH]cn1)NC(=O)[C@H](C)NC(=O)[C@H](Cc1c[nH]c2ccccc12)NC(=O)[C@H](CCCNC(=N)N)NC(=O)[C@@H](NC(=O)[C@H](CC(C)C)NC(=O)[C@@H](NC(=O)[C@H](CO)NC(=O)[C@H](C)NC(=O)[C@H](CC(C)C)NC(=O)CNC(=O)[C@@H](N)Cc1c[nH]cn1)[C@@H](C)O)[C@@H](C)O)C(=O)N[C@@H](CCCNC(=N)N)C(=O)N[C@@H](C)C(=O)N[C@@H](Cc1ccccc1)C(N)=O [gH625] (H-HGLASTLTRWAHYNALIRAF-NH2)
Percentage of delivered peptide, brain compared to liver: higher percentages of delivered peptide compared to the liver

Source: publication PMC6138628, “Enhanced uptake of gH625 by blood brain barrier compared to liver in vivo: characterization of the mechanism by an in vitro model and implications for delivery” (Scientific Reports, 2018)
